The test system of this test is P. falciparum 3D7 growth, pLDH absorbance. In words: P. falciparum 3D7 growth inhibition, dose response, strain 3D7 (AID 2305).

The structures appear in SMILES notation. “And” between values parts separate entries of the source, which are not always exact repeats. Identical values can stand only once.

In turn, `COc1ccc(CCN2CCC(NCc3cccc(N(C)C)c3)CC2)cc1` had an IC50 of 1.32 µM. Compound `O=C(/C=C/c1ccc(Cl)c(Cl)c1)NCCCCCN1CCCC(CNC(=O)Nc2ccc(C(F)(F)F)cc2)C1` (configuration not stated) came in with an IC50 of 0.67 µM.

`O=C(c1ccc(-c2cccc(-c3nc4ccc(F)cc4[nH]3)c2)cc1)N1CCCCC1CN1CCC(O)C1` (configuration not stated) yielded an IC50 of 1.4 µM. The same measure for `O=C(NC1CCCCC1)N(Cc1ccccc1-c1ccc(CNCCc2ccccc2)cc1)C1CCN(Cc2ccccc2)CC1`: 0.93 µM; for `CN(N=Cc1ccccc1)C(N)=NCCCC#Cc1cccc(CN2CCCC2)c1`: 1.79 µM.

Turning to `COc1cc(Cc2cnc(N)nc2N)ccc1OCc1ccc(-c2ccccc2C#N)cc1`, the IC50 was 0.94 µM. On to `O=C(Nc1ccnc(N2C[C@H]3C[C@@H]2CN3Cc2cccc(O)c2)c1)c1ccc(F)cc1`, for which the IC50 turned out to be 1.24 µM.

The compound `CCC(C)(C)c1ccc(OCCCC(=O)Nc2ccc(Cl)c([N+](=O)[O-])c2)c(C(C)(C)CC)c1` had an IC50 of 0.97 µM. The same measure for `O=C(/C=C/c1cccc2ccccc12)NCCCCCN1CCC(c2c[nH]c3ccccc23)CC1`: 1.14 µM. Compound `Cc1ccc2cc(NC(=O)c3cccc(C(=O)Nc4ccc5nc(C)ccc5c4)n3)ccc2n1` registered an IC50 of 1.17 µM. With `Cn1ccnc1S(=O)(=O)CCNCc1ccc(-c2ccc3ncnc(Nc4ccc(OCc5cccc(F)c5)c(Cl)c4)c3c2)o1`, the IC50 came to 0.7 µM. Compared with the last compound, the IC50 is about 1.7-fold lower. Next, `CS(=O)(=O)CCNCc1cccc(-c2cc3nccc(Nc4ccc(Oc5ccccc5)cc4)c3cc2Cl)c1`: 0.62 µM; `CC(Cc1ccc(CNC(=O)NCc2ccc(CC(C)NCCc3cccc(Cl)c3)cc2)cc1)NCCc1cccc(Cl)c1` (configuration not stated): 0.69 µM; `Cc1cccc2[nH]c(-c3cccc(-c4ccc(NC(=O)Nc5ccc(Cl)cc5)cc4)c3)nc12`: 0.2 µM. The same measure for `NC1CCN(c2cnn(Cc3cccc(NC(=O)Nc4ccc(-c5ccccc5)cc4)c3)c(=O)c2Cl)CC1`: 1.14 µM.

With `COc1cc(Cc2cnc(N)nc2N)cc(OCCCC(=O)O)c1OC`, the IC50 turned out to be 1.18 µM. Next, `CC1(C)CN(CCC2CCC(NC(=O)/C=C/c3ccc(F)cc3F)CC2)Cc2ccc(C#N)cc21` (configuration not stated): 0.79 µM; `CC(C)CCn1c(Sc2ccc([N+](=O)[O-])cc2C(F)(F)F)nnc1-c1ccccc1Cl`: 0.92 µM; `CCOC(=O)c1cn(CC)c2cc(N3CCCCC3)c(F)cc2c1=O`: 0.13 µM. Compound `CC(C)(C)SCC(O)Cn1c2ccc(Br)cc2c2cc(Br)ccc21` (configuration not stated) had an IC50 of 1 µM. Next, `Nc1ncc(-c2ccc3ncccc3c2)c(N)n1`: 0.92 µM; `NS(=O)(=O)c1ccc(CNc2ccc3ncc(-c4ccc(OC(F)(F)F)cc4)n3n2)cc1`: 0.58 µM; `COc1ccc2nccc([C@@H](O)CN3CCC(NCc4cc5ccc(Cl)cc5[nH]4)CC3)c2c1`: 0.12 µM. The same measure for `C=CCOC(=O)N1CCC(CNCc2cccc(-c3ccc(-c4nc5c(C)cccc5[nH]4)cc3)c2)C1` (configuration not stated): 0.25 µM; for `O=C(c1ccccc1)[C@H]1C[C@@H]1CN1CC=C(c2c[nH]c3ccccc23)CC1`: 0.53 µM. Compound `O=C(CNC(=O)c1ccc(O)cc1)Nc1cccc(-c2cccc(-c3nc4ccc(C(F)(F)F)cc4[nH]3)c2)c1` showed an IC50 of 1.04 µM.

For the compound `O=C(NCCCN1CCC(N2CCCCC2)CC1)C1=Cc2cc(Br)ccc2OC1`, the IC50 is 0.85 µM. The same measure for `CN1CCC(NCc2ccc(-c3cccc(S(=O)(=O)NCC4CCCO4)c3)cc2)CC1` (configuration not stated): 0.94 µM. `CC(C)Cc1cn(-c2nc(-c3nc4ccccc4[nH]3)cs2)c2ccncc12` returned an IC50 of 0.09 µM. Against the preceding compound, the IC50 is about 10-fold lower. For the compound `CCc1nc(N)nc(N)c1-c1ccc(Cl)cc1`, the IC50 was 0.06 µM and 0.03 µM. Next, `Cc1ccc2[nH]c(-c3ccc(C(=O)NC4CCN(Cc5ccccc5)CC4)cc3)nc2c1C`: 0.73 µM. Next, `Cc1cc(Nc2ccc(O)cc2)nc2cc(O)ccc12`: 0.76 µM; `O=C(C=Cc1ccc(Cl)c(Cl)c1)NCCCCCN1CCCC(CCCNS(=O)(=O)c2ccc(Br)cc2)C1` (configuration not stated): 0.96 µM; `NC1CCCN(Cc2ccc(-c3cccc(-c4nc5ccc(F)cc5[nH]4)c3)cc2)C1` (configuration not stated): 0.64 µM. `COc1ccc(-c2cncc3ccc(C(=O)NCCCn4ccnc4)nc23)cc1`: the IC50 worked out at 0.75 µM. The IC50 values of the last two compounds are within 1.5-fold of each other. As for `O=C(CC1NC(=O)c2ccccc21)Nc1ccc(-c2ccc(-c3nc4ccc(C(F)(F)F)cc4[nH]3)cc2)cc1` (configuration not stated), the IC50 came to 0.47 µM. Next, `COc1cc2nc(N(C)Cc3cc4c(Cl)cccc4s3)nc(N)c2cc1OC`: 0.95 µM; `COC(=O)c1ccc(CC(C)NCC(O)c2cccc(C(F)(F)F)c2)c(OC)c1` (configuration not stated): 0.8 µM; `CCOc1ccc(-c2nc(NC(=O)Cc3cccc(OC)c3)sc2C)cc1`: 0.73 µM. As to `CCCCOc1ccc(/C=C/c2ccc(-c3c(C)[nH]c(C)c(Cl)c3=O)s2)cc1`, the IC50 is 0.4 µM. `C=CCc1cc(Cc2cnc(N)nc2N)cc(CCC)c1O`: the IC50 is 0.99 µM. This IC50 is about 2.5-fold higher than that of the compound before. Next, `Clc1ccc(-c2csc3ncnc(Cl)c23)cc1`: 0.46 µM; `O=S(=O)(Nc1ccc(CCN2CCC(N3CCCCC3)CC2)cc1)c1cccc2cccnc12`: 1.06 µM.

As to `Cc1ccc(O)cc1Nc1c(C(N)=O)cnc2ccc(-c3cncs3)cc12`, the IC50 was 0.67 µM.

The compound `CC(C)CC1c2[nH]c3ccccc3c(=O)c2CN1C(=O)OC(C)(C)C` (configuration not stated) registered an IC50 of 0.22 µM.

`CN1CCC(N(Cc2ccc(N3CCN(Cc4c[nH]c5ccc(Cl)cc45)CC3)nc2)C2CC2)CC1` returned an IC50 of 1 µM. Next, `CN(C)CC1CCCN1Cc1ccccc1-c1cnn(C)c(=O)c1Oc1ccc(F)cc1` (configuration not stated): 1.22 µM. `CCc1cn2c3c(cc(C(=O)N[C@@H](Cc4cccc(F)c4)[C@H](O)CNC4CC4)cc13)N(C)S(=O)(=O)CC2` showed an IC50 of 0.14 µM. Regarding `Nc1ncc(-c2ccc3[nH]ccc3c2)c2ccc(-c3ccncc3)cc12`, the IC50 worked out at 0.54 µM. The same measure for `CCCCN=C(N)c1ccc(OCCCCCOc2ccc(C(N)=NCCCC)cc2)cc1`: 0.11 µM; for `Cc1cccc2[nH]c(-c3cccc(-c4ccc(NC(=O)C(C)CN(C)C)cc4)c3)nc12` (configuration not stated): 0.22 µM; for `CCC(C)CN1CCC(N(C)c2cc(NC(=O)c3cccc(C)c3)ccn2)CC1` (configuration not stated): 0.94 µM. The same measure for `O=C(/C=C/c1ccc(Cl)c(Cl)c1)NCCCCCN1CCC(NC(=O)Nc2cccc(F)c2)CC1`: 0.77 µM; for `CC(=O)Nc1nc(C(=O)Nc2ccc(-c3cccc(-c4nc5ccc(F)cc5[nH]4)c3)cc2)cs1`: 0.29 µM; for `Cc1ccc(NC(=O)Nc2ccc(Cl)c(C(F)(F)F)c2)cc1-c1ccc(C(=O)Nc2ccncc2)cc1`: 0.26 µM. In turn, `O=C(CCC1CCCCC1)NCCNc1cccc2ccccc12` returned an IC50 of 0.83 µM. Against the preceding compound, the IC50 is about 3.2-fold higher. Next, `c1ccc2cc(CNCCCN3CCN(CCCNCc4ccc5ccccc5c4)CC3)ccc2c1`: 0.55 µM. The compound `Cc1ccc(Oc2ccc(CNc3nc(Nc4cccc(F)c4)nc(Nc4cccc(F)c4)n3)cc2)cc1` showed an IC50 of 1.21 µM. On to `Cc1ccc(Nc2nccc(NCC(O)c3cccc(C(F)(F)F)c3)n2)cc1` (configuration not stated), for which the IC50 was found to be 0.68 µM. The same measure for `COc1ccc2c(CCNc3nc(SC)ncc3C(=O)NCCc3ccc(F)cc3)c[nH]c2c1`: 0.76 µM; for `Cc1noc(C)c1-c1cccc(CNCc2ccc(-c3ccc(-c4nc5ccccc5[nH]4)s3)cc2)c1`: 0.56 µM.

`Cc1cc(N[C@@H](Cc2ccccc2)C(=O)NCCc2ccccc2)nc(NCc2ccccc2C)n1` had an IC50 of 0.88 µM. Against the preceding compound, the IC50 is about 1.6-fold higher.

The values above are taken from PubChem BioAssay AID2305 (GlaxoSmithKline (GSK), 2010).
